PMC11156954, “Inhibition and transport mechanisms of the ABC transporter hMRP5” (Nature Communications, 2024)
Like-named read-outs stand apart in the source and are kept apart here.

What was measured:
[1] = tested on: hMRP5; parameters: method as in 2 sources, ref [15]–[18] = [15]; PMID 28277541; doi:10.1038/cddis.2017.53; 15. Hou Y The FOXM1-ABCC5 axis contributes to paclitaxel resistance in nasopharyngeal carcinoma cells Cell Death Dis. 2017 8 e2659 10.1038/cddis.2017.53 28277541 PMC5386553 || [16]; PMID 26975227; doi:10.1038/tpj.2016.17; 16. Lal S Pharmacogenetics of ABCB5, ABCC5 and RLIP76 and doxorubicin pharmacokinetics in Asian breast cancer patients Pharmacogenomics J. 2017 17 337 343 10.1038/tpj.2016.17 26975227 || [17]; PMID 15897250; doi:10.1158/1535-7163.MCT-04-0291; 17. Pratt S The multidrug resistance protein 5 (ABCC5) confers resistance to 5-fluorouracil and transports its monophosphorylated metabolites Mol. Cancer Ther. 2005 4 855 863 10.1158/1535-7163.MCT-04- || [18]; PMID 10840050; doi:10.1073/pnas.120159197; 18. Wijnholds J Multidrug-resistance protein 5 is a multispecific organic anion transporter able to transport nucleotide analogs Proc. Nat. Acad. Sci. USA 2000 97 7476 7481 10.1073/pnas.120159197 1084 ||| ref [18] = [18]; PMID 10840050; doi:10.1073/pnas.120159197; 18. Wijnholds J Multidrug-resistance protein 5 is a multispecific organic anion transporter able to transport nucleotide analogs Proc. Nat. Acad. Sci. USA 2000 97 7476 7481 10.1073/pnas.120159197 1084; settings: cited from earlier work; for efflux by hMRP5 / contribution to drug resistance, in words: anticancer drugs, ref [15]–[18]
[2] = tested on: MRP5; parameters: method as in PMID 16337112, PMID 15006554, PMID 10893247; settings: ref [25],[29],[30]; cited from earlier work
[3] = tested on: MRP5; settings: reducing expression of endogenous MRP5; drug and, for 5-fluorouracil, its metabolites; ref [24],[25]; cited from earlier work
Source text: Patients with high hMRP5 levels tend to have a worse survival rate than those with low expression[20]–[22]. Further, overexpression of hMRP5 is a strong predictor of poor outcomes in cancer patient cohorts[19],[22],[23].

[4] = molecular target: T1, hMRP5-Δ1-94 (Homo sapiens, UniProt O15440); test: MST binding assay, hMRP5-Δ1-94; settings: for binding affinity to hMRP5, in words: MST, digitonin-purified hMRP5-Δ1-94, 15 min at room temperature
T1 construct: The codon-optimized full-length human ABCC5 gene encoding the MRP5 protein (UniProt ID: O15440); 8xHis (C); 2xstrep (C); made in house; host or cells: HEK293F
Description: We monitored the binding of different peptides to digitonin-purified hMRP5-Δ1-94-8xHis by MST assay (Monolith NT). HEPES buffer was used to replace Tris buffer during protein purification in the MST assay. The purified protein was mixed with RED-tris-NTA 2nd Generation dye (NanoTemper, MO-L018). Next, serially diluted peptides were mixed with the labeled protein. The mixtures were incubated for 15 min at room temperature, then the capillaries were loaded and the samples were assessed at 3% LED/excitation power and medium MST power. All peptides used in this study were synthesized in GL Biochem (Shanghai). The peptide sequence is provided as Source Data 5. The MST data were analyzed with MO.Affinity Analysis software.

[5] = tested on: GFP-hMRP5; test: Doxorubicin transport assay in Xenopus laevis oocytes; type: cell-based, human; settings: no peptide, 200 μM doxorubicin, 180 min, Kulori buffer pH 7.4, final 50 μl extract, LC-MS, *P = 0.0190 blank vs GFP-hMRP5
Description: The transport assay was essentially done and modified as described. In brief, the cRNAs of C-terminal GFP-tagged hMRP5 and C-terminal mcherry-tagged M5PI were prepared from the linearized pcs2CAG vector DNA templates using the mMESSAGE mMACHINE T7 transcription system (Thermo Scientific, AM1344). Xenopus oocytes were injected with approximately 30 nl of cRNA (GFP-tagged hMRP5 and mcherry-tagged M5PI have the equal quantity 30 ng) or water after maintained in ND96 solution (96 mM NaCl, 2 mM KCl, 1 mM MgCl2, 1.8 mM CaCl2, 5 mM HEPES, pH 7.4) overnight. After 3 days of culture, the GFP and mcherry fluorescence of oocytes was detected using Nikon Confocal A1R, and oocytes showing similar fluorescence intensity were selected for assay. Then, oocytes were pre-incubated in Kulori buffer (90 mM NaCl, 1 mM KCl, 1 mM MgCl2, 5 mM HEPES, pH 7.4) for 5 min before being transferred to 1 ml Kulori buffer containing 200 μM doxorubicin for 180 min. The assay was stopped by removing the buffer and then washed with Kulori buffer at least 3 times and transferred into 1.5 ml tubes (3 oocytes per tube). Excess washing buffer was removed from the tube, and then 50 μl 50% methanol was added to the tube for oocyte homogenization by pipetting. The homogenized samples were centrifuged at 10,000 × g for 10 min at 4 °C, and the supernatants were transferred into new tubes and incubated at −20 °C until further analysis. The samples were acquired with a Q Exactive mass spectrometer coupled with UltiMate 3000 liquid chromatography system (Thermo scientific, CA, USA) after centrifugation at 20,000 × g for 15 min at 4 °C. A Hypersil GOLDTM C18 column (2.1 ×100 mm, 1.9 μm, Thermo Scientific) was used at a flow rate of 0.3 ml min^−1 for separation. Mobile phase A was 0.1% formic acid, while mobile phase B was acetonitrile modified with 0.1% formic acid. The mass spectrometer was operated in positive mode with a spray voltage of 3.5 kV. Full scan mass spectrometry data were recorded from the m/z range of 80–800. A standard dilution curve for quantification of doxorubicin was done. Statistical analysis of the transport assay results was performed using GraphPad Prism. Source data is provided as Source Data 6. The mass spectrometry data is provided as Supplementary Data 3.

[6] = molecular target: T2, hMRP4 (Homo sapiens, UniProt O15439); test: MST binding assay, hMRP4
T2 sequence (O15439 1-1325): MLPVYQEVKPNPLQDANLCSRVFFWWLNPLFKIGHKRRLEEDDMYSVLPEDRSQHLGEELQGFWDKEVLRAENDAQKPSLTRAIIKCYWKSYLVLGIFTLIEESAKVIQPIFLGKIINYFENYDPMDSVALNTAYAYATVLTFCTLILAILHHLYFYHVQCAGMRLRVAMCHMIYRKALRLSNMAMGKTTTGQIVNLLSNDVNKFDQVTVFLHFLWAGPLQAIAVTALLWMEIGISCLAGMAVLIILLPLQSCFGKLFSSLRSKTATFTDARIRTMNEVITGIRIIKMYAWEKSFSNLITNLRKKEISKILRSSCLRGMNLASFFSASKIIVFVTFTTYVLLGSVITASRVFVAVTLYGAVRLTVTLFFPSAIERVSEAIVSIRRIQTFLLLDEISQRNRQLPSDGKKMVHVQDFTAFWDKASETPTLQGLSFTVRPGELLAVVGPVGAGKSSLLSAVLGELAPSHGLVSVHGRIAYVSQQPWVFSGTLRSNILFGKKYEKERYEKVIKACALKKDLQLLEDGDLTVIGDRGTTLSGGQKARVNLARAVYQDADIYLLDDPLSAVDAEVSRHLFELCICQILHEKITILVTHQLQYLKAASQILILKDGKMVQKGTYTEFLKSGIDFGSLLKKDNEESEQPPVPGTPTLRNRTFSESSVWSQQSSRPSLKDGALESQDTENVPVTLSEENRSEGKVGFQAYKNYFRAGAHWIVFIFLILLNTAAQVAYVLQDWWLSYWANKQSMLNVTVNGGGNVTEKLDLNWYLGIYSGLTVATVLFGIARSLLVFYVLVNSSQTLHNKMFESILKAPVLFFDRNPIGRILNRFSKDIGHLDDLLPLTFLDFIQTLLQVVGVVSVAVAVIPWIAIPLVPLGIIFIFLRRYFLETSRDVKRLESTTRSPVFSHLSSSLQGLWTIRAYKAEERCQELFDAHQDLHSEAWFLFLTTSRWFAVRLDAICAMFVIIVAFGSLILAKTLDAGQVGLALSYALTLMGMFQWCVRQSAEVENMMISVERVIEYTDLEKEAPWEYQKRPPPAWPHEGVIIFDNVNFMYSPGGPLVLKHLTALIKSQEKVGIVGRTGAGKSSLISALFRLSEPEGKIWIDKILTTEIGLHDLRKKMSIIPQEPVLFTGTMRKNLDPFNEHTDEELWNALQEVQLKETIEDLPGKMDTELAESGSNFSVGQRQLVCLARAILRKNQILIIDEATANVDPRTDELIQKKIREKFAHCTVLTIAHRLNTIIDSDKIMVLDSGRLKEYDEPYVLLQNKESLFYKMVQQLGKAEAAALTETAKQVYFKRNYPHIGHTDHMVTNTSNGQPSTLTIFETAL

T1 sequence (O15440 95-1437 limits assumed, stated change not applied): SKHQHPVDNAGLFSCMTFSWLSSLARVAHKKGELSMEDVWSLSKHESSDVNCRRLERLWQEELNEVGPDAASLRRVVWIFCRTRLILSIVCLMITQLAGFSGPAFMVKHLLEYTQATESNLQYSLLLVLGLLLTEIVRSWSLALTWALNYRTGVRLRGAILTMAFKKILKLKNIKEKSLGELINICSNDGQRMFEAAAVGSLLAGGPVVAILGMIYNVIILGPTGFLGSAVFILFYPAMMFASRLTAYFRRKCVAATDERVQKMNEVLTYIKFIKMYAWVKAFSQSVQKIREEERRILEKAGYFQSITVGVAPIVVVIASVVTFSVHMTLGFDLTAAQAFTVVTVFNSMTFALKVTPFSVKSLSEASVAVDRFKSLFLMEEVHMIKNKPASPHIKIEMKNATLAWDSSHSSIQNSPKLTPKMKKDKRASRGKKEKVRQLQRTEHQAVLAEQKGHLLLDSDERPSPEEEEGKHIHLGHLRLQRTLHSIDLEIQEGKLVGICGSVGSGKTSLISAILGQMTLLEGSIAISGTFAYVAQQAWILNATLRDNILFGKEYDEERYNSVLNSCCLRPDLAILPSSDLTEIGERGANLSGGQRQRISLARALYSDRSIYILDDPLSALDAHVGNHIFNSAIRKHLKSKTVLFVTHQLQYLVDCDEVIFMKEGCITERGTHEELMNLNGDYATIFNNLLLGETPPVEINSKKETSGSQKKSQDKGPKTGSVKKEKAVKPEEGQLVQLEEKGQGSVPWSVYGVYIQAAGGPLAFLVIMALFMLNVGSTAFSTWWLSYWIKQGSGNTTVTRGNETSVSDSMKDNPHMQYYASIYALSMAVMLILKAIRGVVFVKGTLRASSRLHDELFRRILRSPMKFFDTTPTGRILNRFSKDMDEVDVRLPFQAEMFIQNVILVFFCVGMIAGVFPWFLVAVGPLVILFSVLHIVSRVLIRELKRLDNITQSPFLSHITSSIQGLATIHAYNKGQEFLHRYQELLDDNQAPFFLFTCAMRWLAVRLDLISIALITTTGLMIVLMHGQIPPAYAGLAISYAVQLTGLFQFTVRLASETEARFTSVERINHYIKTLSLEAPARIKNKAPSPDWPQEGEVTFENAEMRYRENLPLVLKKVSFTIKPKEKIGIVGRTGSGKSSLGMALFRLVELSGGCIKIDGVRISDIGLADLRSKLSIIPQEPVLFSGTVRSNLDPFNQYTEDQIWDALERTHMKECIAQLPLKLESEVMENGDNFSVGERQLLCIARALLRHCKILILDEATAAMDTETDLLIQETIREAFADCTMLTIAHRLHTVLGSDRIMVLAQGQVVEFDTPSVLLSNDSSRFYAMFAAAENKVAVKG

Nc1ncnc2c1ncn2CCOCP(=O)(O)O [9-(2-phosphonomethoxyethyl) adenine]
transport by hMRP5, in words ([1]; antiviral monophosphate nucleotide analog, ref [18]): leading to antiviral multidrug resistance

CCCOc1ccccc1-c1nc2nn[nH]c2c(=O)[nH]1 [zaprinast]
inhibition of MRP5 transport activity, in words [2]: reported to inhibit the transport activity of MRP5

CN(Cc1cnc2nc(N)nc(N)c2n1)c1ccc(C(=O)N[C@@H](CCC(=O)O)C(=O)O)cc1 [methotrexate]
efflux by hMRP5 / contribution to drug resistance, in words [1]: directly contribute to cancer drug resistance through the efflux

Nc1nc2[nH]cc(CCc3ccc(C(=O)N[C@@H](CCC(=O)O)C(=O)O)cc3)c2c(=O)[nH]1 [pemetrexed]
intracellular drug concentration on reducing endogenous MRP5, in words [3]: notably increase the intracellular concentrations

COc1cccc2c1C(=O)c1c(O)c3c(c(O)c1C2=O)C[C@@](O)(C(=O)CO)C[C@@H]3O[C@H]1C[C@H](N)[C@H](O)[C@H](C)O1 [Doxorubicin, doxorubicin]
Kd [4]: 53.5 ± 22.9 µM | efflux by hMRP5 / contribution to drug resistance, in words [1]: directly contribute to cancer drug resistance through the efflux | Doxorubicin concentration in oocyte extract, GFP-hMRP5 ([5]; replicate 1): 323.646 nM | Doxorubicin concentration in oocyte extract, GFP-hMRP5 ([5]; replicate 2): 292.08 nM | Doxorubicin concentration in oocyte extract, GFP-hMRP5 ([5]; replicate 3): 493.92 nM | Doxorubicin concentration in oocyte extract, GFP-hMRP5 ([5]; replicate 4): 266.323 nM

O=c1[nH]cc(F)c(=O)[nH]1 [5-fluorouracil]
intracellular drug concentration on reducing endogenous MRP5, in words [3]: notably increase the intracellular concentrations

CCCc1nn(C)c2c(=O)[nH]c(-c3cc(S(=O)(=O)N4CCN(C)CC4)ccc3OCC)nc12 [sildenafil]
inhibition of MRP5 transport activity, in words [2]: reported to inhibit the transport activity of MRP5

C[C@]12CC[C@H]3[C@@H](CCC4=CC(=O)CC[C@@]43C)[C@@H]1CC[C@@H]2O [testosterone]
binding affinity to hMRP5, in words [4]: relatively low binding affinity

CCCN(CCC)S(=O)(=O)c1ccc(C(=O)O)cc1 [probenecid]
inhibition of MRP5 transport activity, in words [2]: reported to inhibit the transport activity of MRP5

CCCCC[C@H](O)/C=C/[C@H]1[C@H](O)CC(=O)[C@@H]1CCCCCCC(=O)O [PGE1, prostaglandin E1]
Kd [6]: 3.73 ± 0.66 µM | binding affinity to hMRP4, in words ([6]; MST, three independent measurements): hMRP4 could capture prostaglandin E1 (PGE1)

N.N.[Cl][Pt][Cl] [cisplatin]
efflux by hMRP5 / contribution to drug resistance, in words [1]: directly contribute to cancer drug resistance through the efflux

CN(C)C(=O)CCSC(SCCC(=O)O)c1cccc(/C=C/c2ccc3ccc(Cl)cc3n2)c1 (stereo not shown) [MK-571]
inhibition of MRP5 transport activity, in words [2]: reported to inhibit the transport activity of MRP5

COc1cc2c(cc1OC)-c1c/c(=N\c3c(C)cc(C)cc3C)n(C)c(=O)n1CC2 [Trequinsin, trequinsin]
inhibition of MRP5 transport activity, in words [2]: reported to inhibit the transport activity of MRP5 | Kd ([4]; digitonin-purified hMRP5-Δ1-94-8xHis, HEPES buffer, RED-tris-NTA 2nd Generation dye, 15 min at room temperature, 3% LED/excitation power, medium MST power, mean ± SEM of three independent measurements, read-out: binding affinity (MST), KD value): 42.4 ± 17.5 µM

Nc1nc2c(ncn2[C@@H]2O[C@@H]3COP(=O)(O)O[C@H]3[C@H]2O)c(=O)[nH]1 [cGMP, cyclic GMP]
binding affinity to hMRP5, in words [4]: relatively low binding affinity

CC(=O)[C@H]1CC[C@H]2[C@@H]3CCC4=CC(=O)CC[C@]4(C)[C@H]3CC[C@]12C [progesterone]
binding affinity to hMRP5, in words [4]: relatively low binding affinity
